Where a name gives a salt, the structure may show the parent alone.
What was measured:
Restless Legs Syndrome [1] = details: RLS; well controlled studies prior to 1987; cited from earlier work
Restless Legs Syndrome [2] = details: RLS, cited from earlier work
Restless Legs Syndrome [3] = assay: RLS patients treated with ropinirole (patient reports); type: in vivo, human; details: almost at once

## NC(=O)N1c2ccccc2C=Cc2ccccc21 [carbamazepine]
Restless Legs Syndrome [1]
  efficacy compared with placebo: superior to placebos

## N[C@@H](Cc1ccc(O)c(O)c1)C(=O)O [L-dopa]
Restless Legs Syndrome [2]; L-dopa
  time for which the effect has been maintained: 2 years
Restless Legs Syndrome [2]; doses of L-dopa of 100 mg to 200 mg
  patients in whom treatment was effective: 70 % of patients

## O=C1CN=C(c2ccccc2Cl)c2cc([N+](=O)[O-])ccc2N1 [clonazepam]
Restless Legs Syndrome [1]
  efficacy compared with placebo: superior to placebos

## CCCN(CCC)CCc1cccc2c1CC(=O)N2 [ropinirole, 4-[2-(di-n-propylamino)ethyl]-1,3-dihydro-2H-indolin-2-one hydrochloride]
Restless Legs Syndrome [3]
  improvement in condition reported by RLS patients: dramatic improvement
